Measured values published in patent US20220160703A1, “TUMOR-SELECTIVE COMBINATION THERAPY” (The Board of Regents of The University of Texas System, priority 2019, published 2022).

Experiments:
MC38-OVA cells = experiment: Prophylactic tumor vaccination with β-lap-induced dying MC38-OVA cells; type: in vivo, mice; settings: β-lap-induced dying MC38-OVA cells s.c., rechallenge after 7 days
Excerpt: (FIG. 5B) The research schema for in vivo cross-presentation of tumor specific antigen from β-lap-induced dying tumor cells in FIG. 5C and FIG. 5D. (FIGS. 5C-D) Live or β-lap-induced dying MC38-OVA cells were subcutaneously inoculated into the flank of WT or Tlr4^−/− C57BL/6 (n=3-4/group) mice along with or without anti-HMGB1 antibody. 5 days later, the tumor drain lymph mode cells were collected and re-stimulated with OVA protein, OT-1 peptide or irradiated MC38-OVA cells for 48 hr. IFNγ producing cells were determined by ELISPOTs assay (FIG. 5C), and IFNγ secretion level was quantified by CBA mouse IFNγ assay (FIG. 5D). (FIG. 5E) The research schema for the immunogenic vaccine assay in FIG. 5F. (FIG. 5F) MC38-OVA cells treated with β-lap in vitro were inoculated s.c. along with or without anti-HMGB1 antibody into the flank of C57BL/6 mice (n=5-7/group). […] Data are shown as mean±SEM from at least two to three independent experiments. *P<0.05, **P<0.01, and ***P<0.001 determined by two-way ANOVA (FIG. 5C and FIG. 5D) or log-rank test (FIG. 5F).
The numbers of tumor antigen-specific T cells (FIG. 5C) and IFNγ production (FIG. 5D) in TdLN were determined; (ii) C57BL/6 mice that received vaccination with β-lap-induced dying MC38-OVA cells in the presence of anti-HMGB1Ab were rechallanged with MC38-OVA for evaluation of the antitumor protection (FIGS. 5E-F). […]

TC-1 tumor = experiment: TC-1 subcutaneous tumor model; type: in vivo
Experimental: (FIG. 2A) MC38 cells were subcutaneously transplanted into C57BL/6 WT (n=5-6/group) and Rag1 KO mice (n=5/group), respectively. Tumor bearing mice were treated with β-lap (0.3 mg, i.t.) every other day for four times. […] (FIG. 2B) MC38 tumor bearing C57BL/6 mice (n=5/group) were treated with β-lap (0.3 mg, i.t.) every other day for four times. For CD8^+ T cell depletion, 200 μg of anti-CD8 antibodies were intraperitoneally injected four times at three days interval during the treatment. (FIG. 2C) TC-1 tumor bearing C57BL/6 mice (n=4-5/group) were treated with β-lap (0.1 mg, i.t.) for four times with or without anti-CD8 antibodies. […] (FIG. 2E) 2×10^6 A549 cells were subcutaneously injected into C57BL/6 Rag1^−/− mice (n=5/group for vehicle and β-lap; n=7/group for vehicle+OT-1 and β-lap+OT-1). 30 days later, the mice were i.v. adoptively transfected with 2×10^6 lymph node cells from OT-1 transgenic mice. On the following day, tumor-bearing mice were intratumorally treated with β-lap (0.2 mg) every other day for 4 times. (FIG. 2F) A549 cells were subcutaneously injected into NSG-SGM3 (n=5/group) or NSG-SGM3 harboring human CD34^+ hematopoietic stem cells (n=5/group for Hu-NSG vehicle; n=6/group for Hu-NSG β-lap). Tumor bearing mice were treated with β-lap (0.2 mg, i.t.) every other day for four times. Tumor growth was measured twice a week.
(FIG. 15A) C57BL/6J WT or rag−/− mice (n=5/group) were inoculated subcutaneously (s.c.) with 6×10^5 MC38 cells and treated intratumorally (i.t.) with 0.15 mg of IB-DNQ or vehicle on day 10, day 12, day 14 and day 16. (FIG. 15B) C57BL/6J WT or rag−/− mice (n=5/group) were inoculated subcutaneously (s.c.) with 1×10^5 TC-1 cells and treated intratumorally (i.t.) with 0.15 mg of IB-DNQ or vehicle on day 10, day 12, day 14 and day 16. Tumor diameters were measured by calipers twice a week. Tumor volume is presented as mean±SD. *p<0.05, **p<0.01, ***P<0.001.
FIGS. 17A-I (related to FIGS. 1A-J). […] (FIG. 17A) NQO1 expression in different murine cancer cell lines was determined by western blotting assay. […] (FIG. 17C) MC38 cells (NQO1 WT or KO) were treated with β-lap for 3 hr followed by washing and replacing fresh medium. Cell viability was determined by Sulforhodamine B (SRB) Assay 48 hr later. […] (FIG. 17E, FIG. 17F) B16 cells (NQO1 null or stable overexpression) were treated with β-lap with or without dicoumarol (DIC, 50 μM) for 3 hr followed by washing and replacing medium. Cell viability was determined by SRB Assay 48 hr later. […] Catalase (1000 U/ml) was added and cell viability was assessed 48 hr later. (FIG. 17H) C57BL/6 mice (n=5/group) were transplanted with TC-1 cells, and intratumorally treated with β-lap (0.1 or 0.3 mg) every other day for four times. Tumor growth was monitored twice a week. […] Data are shown as mean±SEM. **P<0.01, ***P<0.001, ****P<0.0001 determined by unpaired student t-test (FIG. 17G) or two-way ANOVA (FIG. 17H and FIG. 17I).
6×10^5 MC38 or 8×10^5 MC38 NQO1 KO cells were subcutaneously transplanted into Rag1^−/−, C57BL/6, and NSG mice, respectively (n=5/group). Tumor-bearing mice were treated with IB-DNQ (12 mg/kg, i.t.) or 20% HPβCD (Vehicle) every other day for four times after tumor volumes reached to 50 mm^3.

## CC1(C)CCC2=C(O1)c1ccccc1C(=O)C2=O [β-lap, β-lapachone]
MC38-OVA cells
  growth of re-challenged tumor after immunization: prevented the growth of the re-challenged tumor
TC-1 tumor; 3 doses of β-lap (0.3 mg i.t.)
  tumor response in WT mice: tumor regression occurred
  tumor response in rag−/− mice: but not in adaptive immune-deficient rag^−/− mice
TC-1 tumor; β-lap 0.3 mg i.t.
  antitumor efficacy in STING deficient mice: significantly impaired the antitumor efficacy
TC-1 tumor; β-lap 0.1 or 0.3 mg i.t. every other day four times
  tumor growth: significant tumor suppression
TC-1 tumor; β-lap + anti-CD8 antibody versus β-lap alone
  tumor growth inhibition with anti-CD8 antibody: complete failure of tumor growth inhibition
